Laboratory results: patent publication US20110009628A1, “Compounds and Compositions for Modulating Lipid Levels and Methods of Preparing Same” (priority 2009, published 2011)
Structures can show the parent of a compound that is named as a salt. Where two headings read alike, the source gives them in different places.

Key:
[1] = tested on: LDLR ligand uptake activity in HepG2 cells; test: DiI-LDL uptake in HepG2 cells (Example 6); format: cell-based, human; conditions: 20 hours, A, compound dose ≦10 μM; further: key: +: slightly increased fluorescent intensity over control; ++: modestly increased fluorescent intensity over control; +++: strongly increased fluorescent intensity over control
Description: HepG2 cells (2×10^5 cells/well) in 24-well culture plates were treated with various compounds at indicated concentrations for 20 hours. The fluorescent 1.1′-dioctadecyl-3,3,3′,3′-tetramethylindocarbocyanin perchlorate (DiI-LDL) (Biomedical Technologies, Stoughton, Mass.) at a concentration of 2 μg/mL was added to cells at the end of treatment. After 4 hours, the medium was removed, cells were washed with cold PBS, and were examined immediately under a fluorescent microscope (Nikon) at 200× amplification. The fluorescent intensity in compound-treated cells was compared to that in untreated control cells. […] In these experiments berberine chloride was used for comparison.

[2] = tested on: LDLR mRNA expression in HepG2 cells; test: LDLR mRNA expression in HepG2 cells, quantitative real-time RT-PCR (Example 7); format: cell-based, human; conditions: dose less than or equal to 10 μM, 24 hours
Description: In yet another experiment, HepG2 cells were treated with various compounds for 24 hours at the indicated doses. Total RNA was isolated and 2 μg was used to generate cDNA in a reaction containing random primers and M-MLV at 37° C. for 1 hour in a volume of 25 μL. Real-time PCR was performed on the cDNA using MCEP REALPLEX 2 SYSTEM (Eppendorf) and Universal MasterMix (Applied Biosystems). Human LDLR and GAPDH Pre-Developed TaqMan Assay Reagents (Applied Biosystems) were used to assess the levels of mRNA expressions in HepG2. The levels of LDLR mRNA were normalized to that of GAPDH. Each RNA samples was assayed in triplicate. The abundance of LDLR mRNA in untreated cells was defined as 1, and the amounts of LDLR mRNA from compound-treated cells were plotted relative to that value in FIG. 2B. The data shown are mean±s.d.
Activities of some compounds of Formulas I, II and EE on LDLR mRNA expression were determined. HepG2 cells were treated with new compounds individually at a dose less than or equal to 10 μM for 24 hours. […] In these experiments, berberine chloride was included for comparison.

[3] = tested on: PCSK9 mRNA expression in HepG2 cells; test: PCSK9 mRNA expression in HepG2 cells, quantitative real-time RT-PCR (Example 12); format: cell-based, human; conditions: 24 hours
Description: (§1) The effects of compounds on the mRNA expressions of LDLR and PCSK9 were examined using quantitative real-time RT-PCR assays. HepG2 cells were treated with various compounds at 10 and 40 uM concentrations for 24 hours. Total RNA was isolated and […] was used to generate cDNA in a reaction containing random primers and M-MLV at 37° C. for 1 h in a volume of 25 μL. Real-time PCR was performed on the cDNA using MCEP REALPLEX 2 SYSTEM (Eppendorf) and Universal MasterMix (Applied Biosystems). Human LDLR, PCSK9, and GAPDH Pre-Developed TaqMan Assay Reagents (Applied Biosystems) were used to assess the levels of mRNA expressions in HepG2. The levels of LDLR and PCSK9 mRNA were normalized to that of GAPDH. Each RNA samples was assayed in duplicate. The fold activity was calculated by dividing mRNA abundance in compound treated cells with that of control.

[4] = tested on: LDLR mRNA expression in HepG2 cells; test: LDLR mRNA expression in HepG2 cells, quantitative real-time RT-PCR (Example 12); format: cell-based, human; conditions: Homo sapiens, 24 hours; for fold induction at 10 µM: read-out: Activity on LDLR mRNA at 10 uM (fold of control); for fold induction at 40 µM: read-out: Activity on LDLR mRNA at 40 uM (fold of control)
Description: as §1

[5] = tested on: LDL ligand uptake activity in HepG2 cells; test: DiI-LDL uptake in HepG2 cells (Example 12); format: cell-based, human
Description: The combined beneficial effects of these novel compounds on elevation of LDLR mRNA levels likely through the mechanism of mRNA stabilization and their inhibitory activity towards PCSK9, the secreted protease that degrades LDLR protein, result in strong increases in LDL ligand uptake activity through increased receptor surface abundance. […] Briefly, HepG2 cells (2×10^5 cells/well) in 24-well culture plates were treated with various compounds at 10 and 40 uM concentrations for 20 hours. The fluorescent 1.1′-dioctadecyl-3,3,3′,3′-tetramethylindocarbocyanin perchlorate (DiI-LDL) (Biomedical Technologies, Stoughton, Mass.) at a concentration of 2 μg/ml was added to cells at the end of treatment. After 4 hours, the medium was removed; cells were washed with cold PBS, and were examined immediately under a fluorescent microscope (Nikon) at 200× amplification. The fluorescent intensity in compound-treated cells was compared to that in untreated control cells. […]

[6] = Pharmacokinetics of Compound 141 in male Wistar rats, intravenous and oral; format: in vivo; conditions: for MRT last: read-out: MRT(0-t); for MRT inf: read-out: MRT(0-∞)
Description: For intravenous administration, blood samples were collected via retro-orbital puncture into heparinized tubes at pre-dose and 0.083, 0.25, 0.5, 1, 2, 6, 8, and 24 hours (hr) post-dose.
For oral administration, blood samples were collected at following time points: 0, 0.167, 0.417, 0.75, 1, 2, 4, 6, 8, and 24 hr. After sample collection, plasma samples were stored at −20° C. until bioanalysis. Concentrations of 72(+) and 72(−) in plasma samples were determined using a high performance liquid chromatography/mass spectrometry (HPLC/MS/MS) method.
*F(%)=(Doseiv×AUCoral(0-t))/(Doseoral×AUCiv(0-t))×100%. […]
The pharmacokinetic profile and bioavailability of Compound 141 (phosphate salt of Compound 127) in male Wistar rats following single intravenous (iv) and oral administration (p.o.) were measured according to the procedures of Example 4 and are summarized in Table 11. The pharmacokinetic profile of Compound 162 in male Golden Syrian masters following oral administration (pox) is summarized in Table 12.

[7] = 40 uM, 20 hours (second symbol of cell)
[8] = 10 uM, 20 hours (first symbol of cell)
[9] = Wistar, rat, plasma, male rats, IV (2 mg/kg), mean
[10] = Wistar, rat, plasma, male rats, PO (10 mg/kg), mean

Compound | Activity on DiI-LDL uptake [1] | Activity on LDLR mRNA expression (Fold of control) [2] | PCSK9 mRNA level at 10 uM (fold of control) [3] | Activity on PCSK9 mRNA reduction at 40 uM (fold of control) [3] | fold induction at 10 µM [4] | fold induction at 40 µM [4] | Activity in LDL uptake (relative to control) [5, 7] | Activity in LDL uptake (relative to control) [5, 8] | also measured
COc1ccc2c(c1OC)CN1CCc3cc4c(cc3C1C2Cc1ccccc1)OCO4 (stereo not drawn) [Compound 1, 9,10-dimethoxy-13-benzyl-5,6,7,8,13,13a-hexahydro-2H-1,3-dioxolano[4,5-g]isoquinolino[3,2-a]isoquinoline] | + | 1.56 ± 0.86 Fold of control | – | – | – | – | – | – | –
COc1ccc2c(c1OS(=O)(=O)c1ccccc1C)CN1CCc3cc4c(cc3C1C2)OCO4 (stereo not drawn) [Compound 50, 10-methoxy-5,6,7,8,13,13a-hexahydro-2H-1,3-dioxolano[4,5-g]isoquinolino[3,2-a]isoquinolin-9-yl 2-methylbenzenesulfonate] | +++ | 4.74 ± 0.96 Fold of control | – | – | – | – | – | – | –
COc1ccc2c(c1OC)C(CC(C)=O)N1CCc3cc4c(cc3C1=C2)OCO4 (stereo not drawn) [Compound 30, 1-(9,10-dimethoxy-5,6,7,8-tetrahydro-2H-1,3-dioxolano[4,5-g]isoquinolino[3,2-a]isoquinolin-8-yl)acetone] | + | 1.47 ± 0.13 Fold of control | – | – | – | – | – | – | –
COc1ccc2c(c1OS(=O)(=O)c1ccc(C(C)(C)C)cc1)CN1CCc3cc4c(cc3C1C2)OCO4 (stereo not drawn) [Compound 38, 10-methoxy-5,6,7,8,13,13a-hexahydro-2H-1,3-dioxolano[4,5-g]isoquinolino[3,2-a]isoquinolin-9-yl 4-(tert-butyl)benzenesulfonate] | ++ | 1.82 ± 0.10 Fold of control | – | – | – | – | – | – | –
COc1ccc2c(c1OS(=O)(=O)c1ccccc1)CN1CCc3ccccc3C1C2 (stereo not drawn) [Compound 134, 10-Methoxy-5,6,7,8,13,13a-hexahydroisoquinolino[2,1-b]isoquinolin-9-yl benzenesulfonate] | – | – | 1.25 ± 0.03 fold of control | 0.86 ± 0.02 fold of control | 1.41 ± 0.07 | 6.23 ± 0.64 | + | – | –
COc1cc2c(cc1C(=O)O)C1Cc3ccc(OC)c(OS(=O)(=O)c4ccccc4)c3CN1CC2 (stereo not drawn) [Compound 135, 3,10-Dimethoxy-9-(phenylsulfonyloxy)-5,6,7,8,13,13a-hexahydro isoquinolino[3,2-a]isoquinoline-2-carboxylic acid] | – | – | 0.97 ± 0.04 fold of control | 1.10 ± 0.14 fold of control | 1.72 ± 0.13 | 1.86 | + | – | –
COc1ccc2c(c1OS(=O)(=O)c1cccc(F)c1)CN1CCc3cc4c(cc3C1C2)OCCO4 (stereo not drawn) [Compound 129, 11-Methoxy-6,7,8,9,14,14a-hexahydro-2H,3H-1,4-dioxano[5,6-g]isoquinolino[3,2-a]isoquinolin-10-yl 3-fluorobenzenesulfonate] | – | – | 1.57 ± 0.07 fold of control | 1.68 ± 0.41 fold of control | 2.49 ± 0.18 | 1.99 ± 0.13 | ++ | + | –
COc1cc2c(cc1CO)C1Cc3ccc(OC)c(OS(=O)(=O)c4ccccc4)c3CN1CC2 (stereo not drawn) [Compound 132, 2-(Hydroxymethyl)-3,10-dimethoxy-5,6,7,8,13,13a-hexahydro isoquinolino[2,1-b]isoquinolin-9-yl benzenesulfonate] | – | – | 1.85 ± 0.12 fold of control | 0.73 ± 0.15 fold of control | 2.33 ± 0.04 | 6.62 ± 0.9 | + | ++ | –
COc1cc2c(cc1C(=O)NCCO)C1Cc3ccc(OC)c(OS(=O)(=O)c4ccccc4)c3CN1CC2 (stereo not drawn) [Compound 137, 2-[N-(2-hydroxyethyl)carbamoyl]-3,10-dimethoxy-5,6,7,8,13,13a-hexahydroisoquinolino[2,1-b]isoquinolin-9-yl benzenesulfonate] | – | – | 0.45 ± 0.06 fold of control | 0.34 ± 0.00 fold of control | 1.61 ± 0.19 | 2.66 ± 0.04 | +++ | + | –
COc1cc2c(cc1OC)C1Cc3ccc(OC)c(OS(=O)(=O)c4cccc(F)c4)c3CN1CC2 (racemic) [Compound 141, 2,3,10-Trimethoxy-5,6,7,8,13,13a-hexahydroisoquinolino[2,1-b]isoquinolin-9-yl 3-fluorobenzenesulfonate phosphate Salt] | – | – | – | – | – | – | – | – | AUC(0-inf) [6, 9]: 1080 ng·h/mL; AUC(0-t) [6, 9]: 1070 ng·h/mL; Cmax [6, 9]: 1550 ng/mL; Tmax [6, 9]: 0.083 h; MRT last [6, 9]: 1.46 h; MRT inf [6, 9]: 1.62 h; Vd ([6]; Wistar, rat, plasma, male rats, IV (2 mg/kg), mean, read-out: Vz): 8.31 L/kg; AUC(0-inf) [6, 10]: 3380 ng·h/mL; AUC(0-t) [6, 10]: 3360 ng·h/mL; Cmax [6, 10]: 826 ng/mL; Tmax [6, 10]: 0.33 h; MRT last [6, 10]: 4.25 h; MRT inf [6, 10]: 4.44 h; pharmacokinetic properties and bioavailability, in words ([6]; male Wistar rats, iv and p.o.): excellent pharmacokinetic properties and good bioavailability; CLz ([6]; male rats, IV (2 mg/kg), mean): 31.2 mL/min/kg; t1/2z ([6]; male rats, IV (2 mg/kg), mean): 3.16 h; F* ([6]; male rats, PO (10 mg/kg) vs IV (2 mg/kg), mean): 62.75%; t1/2z ([6]; male rats, PO (10 mg/kg), mean): 3.62 h
COc1ccc2c(c1OS(=O)(=O)c1cccc(F)c1)CN1CCc3cc(C)ccc3C1C2 (stereo not drawn) [Compound 130, 10-Methoxy-3-methyl-5,6,7,8,13,13a-hexahydroisoquinolino[2,1-b]isoquinolin-9-yl 3-fluorobenzenesulfonate] | – | – | 2.11 ± 0.11 fold of control | 0.84 ± 0.12 fold of control | 4.29 ± 0.65 | 9 ± 1.49 | + | ++ | –
